# Patent publication US7718808B2, “Thiazole derivatives” (Kyowa Hakko Kirin Co., Ltd., priority 2003, dated 2010)
row,SMILES,melting point
1,"O=C(Nc1nc(-c2ccco2)c(-c2ccncc2)s1)c1cc[nH]c(=O)c1 [Compound 112, N-[4-(2-Furyl)-5-(4-pyridyl)thiazol-2-yl]-2-oxo-1,2-dihydropyridine-4-carboxamide]",277 to 281 °C
2,"COc1cccc(C(=O)Nc2nc(-c3ccco3)c(C(=O)C3CCOCC3)s2)c1OC [Compound 483, N-[4-(2-Furyl)-5-(tetrahydropyran-4-ylcarbonyl)thiazol-2-yl]-2,3-dimethoxybenzamide]",198 to 200 °C
3,"C[C@@H]1CN(CC(=O)Nc2nc(-c3ccco3)c(C(=O)c3ccccn3)s2)C[C@H](C)O1 [Compound 265, 2-(cis-2,6-Dimethylmorpholino)-N-[4-(2-furyl)-5-(pyridin-2-ylcarbonyl)thiazol-2-yl]acetamide]",188 to 191 °C
4,"O=C(Nc1nc(-c2ccco2)c(C(=O)C2CCOCC2)s1)c1cccnc1 [Compound 501, N-[4-(2-Furyl)-5-(tetrahydropyran-4-ylcarbonyl)thiazol-2-yl]pyridine-3-carboxamide]",209 to 212 °C
5,"CC(=O)Nc1nc(-c2ccco2)c(C(=O)c2ccccn2)s1 [Compound 188, N-[4-(2-Furyl)-5-(pyridin-2-ylcarbonyl)thiazol-2-yl]acetamide]",216 to 217 °C
6,"CCn1cc(C(=O)c2sc(NC(=O)c3ccncc3)nc2-c2ccco2)ccc1=O [Compound 362, N-[5-(1-Ethyl-2-oxo-1,2-dihydropyridin-5-ylcarbonyl)-4-(2-furyl)thiazol-2-yl]pyridine-4-carboxamide]",295 to 296 °C
7,"O=C(Nc1nc(-c2ccco2)c(C(=O)c2ccccn2)s1)c1ccn(Cc2ccccc2)c(=O)c1 [Compound 232, 1-Benzyl-N-[4-(2-furyl)-5-(pyridin-2-ylcarbonyl)thiazol-2-yl]-2-oxo-1,2-dihydropyridine-4-carboxamide]",269 to 270 °C
8,"O=C(c1ccccc1)c1sc(NC(=O)C2(O)CC2)nc1-c1ccco1 [Compound 138, N-[5-Benzoyl-4-(2-furyl)thiazol-2-yl]-1-hydroxycyclopropanecarboxamide]",202 to 205 °C
9,"O=C(Nc1nc(-c2ccoc2)c(-c2ccncc2)s1)c1ccncc1 [Compound 605, N-[4-(3-Furyl)-5-(4-pyridyl)thiazol-2-yl]pyridine-4-carboxamide]",251 to 254 °C
10,"O=C(COc1ccccc1)Nc1nc(-c2ccco2)c(C(=O)C2CCOCC2)s1 [Compound 529, N-[4-(2-Furyl)-5-(tetrahydropyran-4-ylcarbonyl)thiazol-2-yl]-2-phenoxyacetamide]",148 to 150 °C
11,"O=C(CN1CCC(N2CCCCC2)CC1)Nc1nc(-c2ccco2)c(C(=O)C2CCOCC2)s1 [Compound 552, N-[4-(2-Furyl)-5-(tetrahydropyran-4-ylcarbonyl)thiazol-2-yl]-2-(4-piperidinopiperidino)acetamide]",177 to 179 °C
12,"COc1ccc(C(=O)Nc2nc(-c3ccco3)c(C(=O)c3ccccn3)s2)c(OC)n1 [Compound 224, N-[4-(2-Furyl)-5-(pyridin-2-ylcarbonyl)thiazol-2-yl]-2,6-dimethoxypyridine-3-carboxamide]",201 to 202 °C
13,"O=C(Nc1nc(-c2ccccn2)c(C(=O)c2ccccn2)s1)c1ccncc1 [Compound 631, N-[4-(2-Pyridyl)-5-(pyridin-2-ylcarbonyl)thiazol-2-yl]pyridine-4-carboxamide]",232 to 234 °C
14,"O=C(Nc1nc(-c2ccco2)c(C(=O)c2cccs2)s1)c1ccncc1 [Compound 347, N-[4-(2-Furyl)-5-(thiophen-2-ylcarbonyl)thiazol-2-yl]pyridine-4-carboxamide]",208 to 210 °C
15,"CCn1ccc(C(=O)c2sc(NC(=O)c3ccncc3)nc2-c2ccco2)c1 [Compound 355, N-[5-(1-Ethylpyrrol-3-ylcarbonyl)-4-(2-furyl)thiazol-2-yl]pyridine-4-carboxamide]",127 to 134 °C
16,"O=C(c1ccccn1)c1sc(NC(=O)C2CCN(Cc3ccncc3)CC2)nc1-c1ccco1 [Compound 198, N-[4-(2-Furyl)-5-(pyridin-2-ylcarbonyl)thiazol-2-yl]-1-(pyridin-4-ylmethyl)piperidine-4-carboxamide]",240 to 241 °C
17,"O=C(Cc1cccnc1)Nc1nc(-c2ccoc2)c(C(=O)C2CCOCC2)s1 [Compound 618, N-[4-(3-Furyl)-5-(tetrahydropyran-4-ylcarbonyl)thiazol-2-yl]-2-(3-pyridyl)acetamide]",195 to 197 °C
18,"N#Cc1ccccc1C(=O)Nc1nc(-c2ccco2)c(C(=O)C2CCOCC2)s1 [Compound 472, 2-Cyano-N-[4-(2-furyl)-5-(tetrahydropyran-4-ylcarbonyl)thiazol-2-yl]benzamide]",221 to 224 °C
19,"CCn1nc(-c2sc(NC(=O)c3ccncc3)nc2-c2ccco2)ccc1=O [Compound 130, N-[5-(1-Ethyl-6-oxo-1,6-dihydropyridazin-3-yl)-4-(2-furyl)thiazol-2-yl]pyridine-4-carboxamide]",235 to 239 °C
20,"O=C(Nc1nc(-c2ccco2)c(C(=O)C2CCOCC2)s1)C1CCOC1 (stereo not drawn) [Compound 524, N-[4-(2-Furyl)-5-(tetrahydropyran-4-ylcarbonyl)thiazol-2-yl]tetrahydrofuran-3-carboxamide]",164 to 166 °C

row,SMILES,melting point
1,"O=C(Nc1nc(-c2ccco2)c(C(=O)c2ccoc2)s1)c1ccncc1 [Compound 346, N-[4-(2-furyl)-5-(furan-3-ylcarbonyl)thiazol-2-yl]pyridine-4-carboxamide]",217 to 231 °C
2,"CC(C)(O)C(=O)Nc1nc(-c2ccco2)c(C(=O)c2ccccc2)s1 [Compound 137, N-[5-Benzoyl-4-(2-furyl)thiazol-2-yl]-2-hydroxy-2-methylpropanamide]",153 to 154 °C
3,"Cn1cc(C(=O)Nc2nc(-c3ccco3)c(C(=O)C3CCOCC3)s2)cn1 [Compound 519, N-[4-(2-Furyl)-5-(tetrahydropyran-4-ylcarbonyl)thiazol-2-yl]-1-methylpyrazole-4-carboxamide]",243 to 247 °C
4,"O=C(CN1CCN(C2CCOCC2)CC1)Nc1nc(-c2ccco2)c(C(=O)c2ccccn2)s1 [Compound 279, N-[4-(2-Furyl)-5-(pyridin-2-ylcarbonyl)thiazol-2-yl]-2-[4-(tetrahydropyran-4-yl)piperazin-1-yl]acetamide]",172 to 188 °C
5,"O=C(Nc1nc(-c2ccco2)c(C(=O)C2CCOCC2)s1)c1ccc2c(c1)OC(F)(F)O2 [Compound 498, 2,2-Difluoro-N-[4-(2-furyl)-5-(tetrahydropyran-4-ylcarbonyl)thiazol-2-yl]-1,3-benzodioxole-5-carboxamide]",124 to 129 °C
6,"CN1CCC(OC(=O)Nc2nc(-c3ccco3)c(C(=O)c3ccccn3)s2)CC1 [Compound 254, 1-Methylpiperidin-4-yl N-[4-(2-furyl)-5-(pyridin-2-ylcarbonyl)thiazol-2-yl]carbamate]",222 to 225 °C
7,"O=C(Nc1nc(-c2ccco2)c(C(=O)c2ccccn2)s1)OC1CCC1 [Compound 251, Cyclobutyl N-[4-(2-furyl)-5-(pyridin-2-ylcarbonyl)thiazol-2-yl]carbamate]",152 to 153 °C
8,"O=C(Nc1nc(-c2ccco2)c(C(=O)C2CCOCC2)s1)c1ccccc1 [Compound 457, N-[4-(2-Furyl)-5-(tetrahydropyran-4-ylcarbonyl)thiazol-2-yl]benzamide]",221 to 222 °C
9,"O=C(Nc1nc(-c2ccoc2)c(C(=O)c2ccccn2)s1)c1ccncc1 [Compound 608, N-[4-(3-Furyl)-5-(pyridin-2-ylcarbonyl)thiazol-2-yl]pyridine-4-carboxamide]",264 to 266 °C
10,"CC(C)(C)C(=O)c1sc(NC(=O)C2CC2)nc1-c1ccco1 [Compound 401, N-[4-(2-Furyl)-5-pivaloylthiazol-2-yl]cyclopropanecarboxamide]",133 to 134 °C
11,"O=C(Nc1nc(-c2ccco2)c(C(=O)c2ccn(Cc3ccccc3)c(=O)c2)s1)c1ccncc1 [Compound 371, N-[5-(1-Benzyl-2-oxo-1,2-dihydropyridin-4-ylcarbonyl)-4-(2-furyl)thiazol-2-yl]pyridine-4-carboxamide]",288 to 291 °C
12,"CN(C)c1ccc(C(=O)Nc2nc(-c3ccco3)c(C(=O)C3CCOCC3)s2)cc1 [Compound 465, 4-(Dimethylamino)-N-[4-(2-furyl)-5-(tetrahydropyran-4-ylcarbonyl)thiazol-2-yl]benzamide]",238 to 240 °C
13,"O=C(CN1CCC(N2CCOCC2)CC1)Nc1nc(-c2ccco2)c(C(=O)c2ccccn2)s1 [Compound 271, N-[4-(2-Furyl)-5-(pyridin-2-ylcarbonyl)thiazol-2-yl]-2-(4-morpholinopiperidino)acetamide]",149 to 150 °C
14,"CC(C)(C)C(=O)Nc1nc(-c2ccco2)c(C(=O)c2ccccn2)s1 [Compound 190, N-[4-(2-Furyl)-5-(pyridin-2-ylcarbonyl)thiazol-2-yl]-2,2-dimethylpropanamide]",186 to 187 °C
15,"O=C(Nc1nc(-c2ccco2)c(C(=O)c2ccccn2)s1)c1ccc2c(c1)OCCO2 [Compound 210, N-[4-(2-Furyl)-5-(pyridin-2-ylcarbonyl)thiazol-2-yl]-1,4-benzodioxane-6-carboxamide]",189 to 191 °C
16,"CCn1c(-c2sc(NC(=O)c3ccncc3)nc2-c2ccco2)cccc1=O [Compound 129, N-[5-(1-Ethyl-6-oxo-1,6-dihydropyridin-2-yl)-4-(2-furyl)thiazol-2-yl]pyridine-4-carboxamide]",> 300 °C
17,"O=C(Nc1nc(-c2ccco2)c(C(=O)c2ccccn2)s1)c1cc[nH]c(=O)c1 [Compound 231, N-[4-(2-Furyl)-5-(pyridin-2-ylcarbonyl)thiazol-2-yl]-2-oxo-1,2-dihydropyridine-4-carboxamide]",170 to 180 °C (dec.)
18,"COCCN(C)c1cc(C(=O)Nc2nc(-c3ccco3)c(C(=O)c3ccccn3)s2)ccn1 [Compound 217, N-[4-(2-Furyl)-5-(pyridin-2-ylcarbonyl)thiazol-2-yl]-2-[N-(2-methoxyethyl)-N-methylamino]pyridine-4-carboxamide]",114 to 117 °C
19,"COc1cccc(C(=O)Nc2nc(-c3ccoc3)c(C(=O)C3CCOCC3)s2)c1 [Compound 619, N-[4-(3-Furyl)-5-(tetrahydropyran-4-ylcarbonyl)thiazol-2-yl]-3-methoxybenzamide]",194 to 196 °C
